ChEMBL document CHEMBL1255543, “On resin amino acid side chain attachment strategy for the head to tail synthesis of new glutamine containing gramicidin-S analogs and their antimicrobial activity” (2010)
In brackets after ≈: the same amount, converted by molar mass. Peptide text beside a SMILES is read from it.

Legend:
Type in all cases: functional
Escherichia coli = test: Antimicrobial activity against Escherichia coli ATCC 25922 by broth microdilution assay
Pseudomonas aeruginosa = test: Antimicrobial activity against Pseudomonas aeruginosa ATCC 27853 by broth microdilution assay
Enterococcus faecalis = test: Antimicrobial activity against Enterococcus faecalis ATCC 51299 by broth microdilution assay
Streptococcus pyogenes = test: Antimicrobial activity against Streptococcus pyogenes by broth microdilution assay
Staphylococcus aureus = test: Antimicrobial activity against methicillin-resistant Staphylococcus aureus ATCC 33591 by broth microdilution assay
Streptococcus agalactiae = test: Antimicrobial activity against Streptococcus agalactiae COH1 by broth microdilution assay
[1] = Streptococcus pyogenes, read-out: MIC

| SMILES | MIC (Escherichia coli) [µg/mL] | MIC (Pseudomonas aeruginosa) [µg/mL] | MIC (Enterococcus faecalis) [µg/mL] | MIC (Streptococcus pyogenes; [1]) [µg/mL] | MIC (Staphylococcus aureus) [µg/mL] | MIC (Streptococcus agalactiae) [µg/mL] | MIC (Streptococcus pyogenes) [µg/mL] |
| --- | --- | --- | --- | --- | --- | --- | --- |
| CC(C)C[C@@H]1NC(=O)[C@H](CCC(N)=O)NC(=O)[C@H](C(C)C)NC(=O)[C@@H]2CCCN2C(=O)[C@@H](Cc2ccc(O)cc2)NC(=O)[C@H](CC(C)C)NC(=O)[C@H](CCC(N)=O)NC(=O)[C@H](C(C)C)NC(=O)[C@@H]2CCCN2C(=O)[C@@H](Cc2ccc(O)cc2)NC1=O | > 100 | > 100 | > 100 | > 100 | > 100 | > 100 | – |
| CC(C)C[C@@H]1NC(=O)[C@H](CCC(N)=O)NC(=O)[C@H](C(C)C)NC(=O)[C@@H]2CCCN2C(=O)[C@@H](Cc2c[nH]c3ccccc23)NC(=O)[C@H](CC(C)C)NC(=O)[C@H](CCC(N)=O)NC(=O)[C@H](C(C)C)NC(=O)[C@@H]2CCCN2C(=O)[C@@H](Cc2c[nH]c3ccccc23)NC1=O | > 100 | > 100 | > 100 | > 100 | > 100 | > 100 | – |
| CC(C)C[C@@H]1NC(=O)[C@H](CCC(N)=O)NC(=O)[C@H](C(C)C)NC(=O)[C@@H]2CCCN2C(=O)[C@@H](c2ccccc2)NC(=O)[C@H](CC(C)C)NC(=O)[C@H](CCC(N)=O)NC(=O)[C@H](C(C)C)NC(=O)[C@@H]2CCCN2C(=O)[C@@H](c2ccccc2)NC1=O | > 100 | > 100 | > 100 | 10 (≈ 8.76 µM) | > 100 | > 100 | – |
| CC(C)C[C@@H]1NC(=O)[C@H](CCC(N)=O)NC(=O)[C@H](C(C)C)NC(=O)[C@@H]2CCCN2C(=O)[C@@H](Cc2cccs2)NC(=O)[C@H](CC(C)C)NC(=O)[C@H](CCC(N)=O)NC(=O)[C@H](C(C)C)NC(=O)[C@@H]2CCCN2C(=O)[C@@H](Cc2cccs2)NC1=O | > 100 | > 100 | > 100 | > 100 | > 100 | > 100 | – |
| CC(C)C[C@@H]1NC(=O)[C@H](CCC(N)=O)NC(=O)[C@H](C(C)C)NC(=O)[C@@H]2CCCN2C(=O)[C@@H](Cc2ccc(F)cc2)NC(=O)[C@H](CC(C)C)NC(=O)[C@H](CCC(N)=O)NC(=O)[C@H](C(C)C)NC(=O)[C@@H]2CCCN2C(=O)[C@@H](Cc2ccc(F)cc2)NC1=O | > 100 | > 100 | > 100 | 10 (≈ 8.3 µM) | > 100 | > 100 | – |
| CC(C)C[C@@H]1NC(=O)[C@H](CCC(N)=O)NC(=O)[C@H](C(C)C)NC(=O)[C@@H]2CCCN2C(=O)[C@@H](Cc2ccc(I)cc2)NC(=O)[C@H](CC(C)C)NC(=O)[C@H](CCC(N)=O)NC(=O)[C@H](C(C)C)NC(=O)[C@@H]2CCCN2C(=O)[C@@H](Cc2ccc(I)cc2)NC1=O | > 100 | > 100 | > 100 | 10 (≈ 7.04 µM) | > 100 | > 100 | – |
| CC(C)C[C@@H]1NC(=O)[C@H](CCC(N)=O)NC(=O)[C@H](CC(C)C)NC(=O)[C@@H]2CCCN2C(=O)[C@H](Cc2ccccc2)NC(=O)[C@H](CC(C)C)NC(=O)[C@H](CCC(N)=O)NC(=O)[C@H](CC(C)C)NC(=O)[C@@H]2CCCN2C(=O)[C@H](Cc2ccccc2)NC1=O (cyclo(FPLQLFPLQL)) | > 100 | > 100 | > 100 | 10 (≈ 8.35 µM) | > 100 | > 100 | – |
| CC(C)C[C@@H]1NC(=O)[C@H](CCC(N)=O)NC(=O)[C@H](CC(C)C)NC(=O)[C@@H]2CCCN2C(=O)[C@H](Cc2ccccc2)NC(=O)[C@H](C(C)C)NC(=O)[C@H](CCC(N)=O)NC(=O)[C@H](CC(C)C)NC(=O)[C@@H]2CCCN2C(=O)[C@H](Cc2ccccc2)NC1=O (cyclo(FPLQLFPLQV)) | > 100 | > 100 | > 100 | 10 (≈ 8.45 µM) | > 100 | 10 (≈ 8.45 µM) | – |
| CC(C)C[C@@H]1NC(=O)[C@H](CCC(N)=O)NC(=O)[C@H](CC(C)C)NC(=O)[C@@H]2CCCN2C(=O)[C@H](Cc2ccccc2)NC(=O)[C@H](C(C)C)NC(=O)[C@H](CCC(N)=O)NC(=O)[C@H](C(C)C)NC(=O)[C@@H]2CCCN2C(=O)[C@H](Cc2ccccc2)NC1=O (cyclo(FPLQLFPVQV)) | > 100 | > 100 | > 100 | 10 (≈ 8.55 µM) | > 100 | > 100 | – |
| CC(C)C[C@@H]1NC(=O)[C@H](CCC(N)=O)NC(=O)[C@H](C(C)C)NC(=O)[C@@H]2CCCN2C(=O)[C@H](Cc2ccccc2)NC(=O)[C@H](C(C)C)NC(=O)[C@H](CCC(N)=O)NC(=O)[C@H](CC(C)C)NC(=O)[C@@H]2CCCN2C(=O)[C@H](Cc2ccccc2)NC1=O (cyclo(FPLQVFPVQL)) | > 100 | > 100 | > 100 | 10 (≈ 8.55 µM) | > 100 | > 100 | – |
| CC(C)C[C@@H]1NC(=O)[C@H](CCC(N)=O)NC(=O)[C@H](C(C)C)NC(=O)[C@@H]2CCCN2C(=O)[C@H](Cc2ccccc2)NC(=O)[C@H](CC(C)C)NC(=O)[C@H](CCC(N)=O)NC(=O)[C@H](C(C)C)NC(=O)[C@@H]2CCCN2C(=O)[C@H](Cc2ccccc2)NC1=O (cyclo(FPVQLFPVQL)) | > 100 | > 100 | > 100 | 10 (≈ 8.55 µM) | > 100 | > 100 | – |
| CC(C)C[C@@H]1NC(=O)[C@H](CCC(N)=O)NC(=O)[C@H](C(C)C)NC(=O)[C@@H]2CCCN2C(=O)[C@H](Cc2ccccc2)NC(=O)[C@H](C(C)C)NC(=O)[C@H](CCC(N)=O)NC(=O)[C@H](C(C)C)NC(=O)[C@@H]2CCCN2C(=O)[C@H](Cc2ccccc2)NC1=O (cyclo(FPVQLFPVQV)) | > 100 | > 100 | > 100 | 10 (≈ 8.65 µM) | > 100 | > 100 | – |
| CC(C)[C@@H]1NC(=O)[C@H](CCC(N)=O)NC(=O)[C@H](C(C)C)NC(=O)[C@@H]2CCCN2C(=O)[C@H](Cc2ccccc2)NC(=O)[C@H](C(C)C)NC(=O)[C@H](CCC(N)=O)NC(=O)[C@H](C(C)C)NC(=O)[C@@H]2CCCN2C(=O)[C@H](Cc2ccccc2)NC1=O (cyclo(FPVQVFPVQV)) | > 100 | > 100 | > 100 | > 100 | > 100 | > 100 | – |
| CC(C)C[C@@H]1NC(=O)[C@@H]2CCCN2C(=O)[C@H](Cc2ccccc2)NC(=O)[C@H](C(C)C)NC(=O)[C@H](CCC(N)=O)NC(=O)[C@H](C(C)C)NC(=O)[C@@H]2CCCN2C(=O)[C@H](Cc2ccccc2)NC(=O)[C@H](C(C)C)NC(=O)[C@H](CCC(N)=O)NC1=O (stereo in doubt; form 1) | > 100 | > 100 | > 100 | – | > 100 | > 100 | >100 |
| CC(C)C[C@@H]1NC(=O)[C@@H]2CCCN2C(=O)[C@H](Cc2ccccc2)NC(=O)[C@H](C(C)C)NC(=O)[C@H](CCC(N)=O)NC(=O)[C@H](C(C)C)NC(=O)[C@@H]2CCCN2C(=O)[C@H](Cc2ccccc2)NC(=O)[C@H](C(C)C)NC(=O)[C@H](CCC(N)=O)NC1=O (stereo in doubt; form 2) | – | – | – | – | – | – | 10 (≈ 8.65 µM) |
